Test systems include M19-MEL melanoma; XF 498 CNS; DMS 273 small cell lung; SR leukemia; LXFL 529 NSCLC; RXF-631 renal; DMS 114 small cell lung; DLD-1 colon; P388 leukemia; SN12K1 renal; P388/ADR leukemia; PC-3 prostate.
Test in all cases: NCI tumour cell line growth inhibition, 48 h

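How tested: cells in 96-well plates exposed to compound for 48 hours at five concentrations. The concentration for full growth arrest is given as TGI.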

These results are taken from PubChem BioAssay (NCI).

Take `CCO/N=[N+](\[O-])N(CC)CC`: the TGI with M19-MEL melanoma, with XF 498 CNS, with DMS 273 small cell lung, in the assay on SR leukemia, with LXFL 529 NSCLC and with RXF-631 renal was above 100 µM throughout.
For the compound `COc1ccc(-c2cc(N3CCN(c4ccccc4)CC3)c(C#N)c(=O)o2)cc1`, the TGI is 19.8 µM in the assay on XF 498 CNS; above 100 µM in the assay on DMS 114 small cell lung; above 100 µM with DMS 273 small cell lung; above 100 µM in the assay on SR leukemia; above 100 µM in the assay on LXFL 529 NSCLC; above 100 µM in the assay with DLD-1 colon. Further, the TGI with RXF-631 renal was above 100 µM.
As for `COc1cc(C2c3cc4c(cc3[C@@H](Nc3cccc(C(C)=O)c3)C3COC(=O)[C@H]23)OCO4)cc(OC)c1O` (some centres undefined), the TGI is above 57.7 µM in the assay with M19-MEL melanoma; 0.254 µM in the assay with P388 leukemia; 14.9 µM in the assay with XF 498 CNS; 4.77 µM with DMS 114 small cell lung; 1.81 µM in the assay with DMS 273 small cell lung; 4.61 µM in the assay with SN12K1 renal. The TGI in the assay with DLD-1 colon was 4.93 µM; in the assay with P388/ADR leukemia, 2.53 µM.
On to `C=C1C(=O)OC2C1CC(O)/C(C)=C\CCC1(C)OC21` (centres undefined), for which the values for the TGI in the assay on SR leukemia and with PC-3 prostate were 61.2 µM and above 100 µM, respectively.
For the compound `O=C(CSCC(=O)N/N=C\c1ccc(-c2ccccc2)cc1)N/N=C\c1ccc(-c2ccccc2)cc1`, the TGI amounted to 26.8 µM in the assay on SR leukemia and 88.1 µM in the assay on PC-3 prostate.
On to `c1ccc(-c2nn(-c3ccccc3)[n+](-c3ccccc3)n2)cc1`, for which the TGI is above 44.4 µM in the assay on SR leukemia and above 20.7 µM in the assay with PC-3 prostate.
Turning to `CC(C)(Br)C1(O)CCCN1C(=O)c1ccccc1` (centres undefined), the TGI with M19-MEL melanoma, with DMS 273 small cell lung, with SR leukemia, with LXFL 529 NSCLC, in the assay on DLD-1 colon and in the assay with RXF-631 renal was above 100 µM throughout.
Compound `CN(C)c1ccc(N=Nc2ccccn2)cc1` gave a TGI in the assay on PC-3 prostate of 81.9 µM.
Turning to `CC12Cc3cc4c(cc3C1(c1ccc([N+](=O)[O-])cc1)OCCO2)OCO4` (centres undefined), the TGI with SR leukemia and in the assay on PC-3 prostate was above 100 µM in each case.
Consider `Cc1ccc(S(N)(=O)=O)cc1`, for which the TGI in the assay with SR leukemia and with PC-3 prostate was above 1000 µM in each case.
For the compound `CC[n+]1c(/C=C/c2ccc(N(CCCl)CCCl)cc2)ccc2cc(NC(=O)/C=C/c3ccccc3)ccc21`, the TGI in the assay on DMS 114 small cell lung was found to be 13.8 µM; in the assay on SR leukemia it was 0.728 µM; in the assay on PC-3 prostate it was 1.09 µM.
Consider `Cc1nc2ccccc2c(=O)[nH]1`, for which the TGI in the assay on M19-MEL melanoma, in the assay on XF 498 CNS, in the assay on LXFL 529 NSCLC, with DLD-1 colon and in the assay on RXF-631 renal was above 100 µM in each case.
Compound `O=[N+]([O-])c1cn[n+]([O-])c2ccccc12` displayed a TGI in the assay with PC-3 prostate of 23.3 µM.
Consider `COc1cc[n+](C)cc1`, for which the TGI in the assay on M19-MEL melanoma, with P388 leukemia, in the assay on XF 498 CNS, in the assay with DMS 114 small cell lung, in the assay with DMS 273 small cell lung and with SN12K1 renal was above 100 µM throughout. Further, the TGI in the assay on DLD-1 colon and with P388/ADR leukemia was above 100 µM throughout.
Take `Cc1cn(Cc2ccccc2CCl)c(=O)[nH]c1=O`: the TGI with PC-3 prostate turned out to be 44.2 µM.
Take `Brc1ccccc1-c1ncc(-c2ccccc2)o1`: the TGI in the assay on PC-3 prostate was above 100 µM.
Take `N#Cc1c(NC(=S)NC(=O)c2ccccc2)nc2c(c1-c1ccccc1)CCCC2`: the TGI in the assay on SR leukemia and in the assay with PC-3 prostate was above 100 µM throughout.
